{"source": "paper PMC11483813", "about": "“Bombesin-Targeted Delivery of β-Carboline-Based Ir(III) and Ru(II) Photosensitizers for a Selective Photodynamic Therapy of Prostate Cancer” (Inorganic Chemistry, 2024)", "format_in_all_cases": "physicochemical", "key": {"[1]": {"assay": "pKa determination from emission intensity versus pH", "conditions": "H2O:DMSO (99:1), 10^–5 M, 25 °C", "excerpt": "Ir-H and Ru-H are susceptible to deprotonation in aqueous media due to the presence of the acidic −COOH group. In fact, the actual protonation state of these complexes at the different physiological pH values defines their global charge and correspondingly influences their solubility, their photophysical properties, and their cellular uptake.[45]−[47] Thus, the pKa values of Ir-H and Ru-H in their excited states were experimentally determined by monitoring the variations of their emission intensity at specific wavelengths versus different pH values and fitting the data (Iem,λ/pH) to a sigmoidal equation. In good agreement with similar complexes reported in the literature,[45],[46] there was a gradual decrease in the emission intensity of Ir-H and Ru-H with decreasing pH (Figures 4 and S50). […] These values can be considered as an acceptable approximation to the values of the respective ground states. Therefore, we concluded that Ir-H and Ru-H adopt their deprotonated zwitterionic forms in the whole range of physiological pHs. This means that Ir-H assumes a zwitterionic neutral form, while Ru-H adopts a zwitterionic monocationic structure. In both cases, there is charge separation, and as a result, we predict that the cellular uptake ability of these complexes could be reduced, in comparison to that of their relatives Ir-Me and Ru-Me.\nFigure 4 pKa determination. […]"}, "[2]": {"assay": "Photocatalytic singlet oxygen generation (ABDA probe)", "conditions": "H2O:DMSO (1:1), blue light 460 nm, rose bengal as reference", "excerpt": "Singlet oxygen is thought to be the main cytotoxic species in type II PDT processes. Therefore, we determined the ability of Ir-Me and Ru-Me to generate ^1O2 under photocatalytic conditions, as illustrative examples of our PSs. As shown in Figures 6 and S51, we monitored by means of UV–vis spectroscopy the oxidation of 9,10-anthracenediyl bis(methylene)dimalonic acid (ABDA, 8x 10^–5 M) in the presence of atmospheric oxygen, using Ir-Me (10^–5 M) as the PS and H2O:DMSO (1:1) as the solvent system under blue light exposure (λir = 460 nm). […] Moreover, the singlet oxygen quantum yield values (ΦΔ) of Ir-Me and Ru-Me were determined using rose bengal (ΦΔ = 0.75) as the reference. […]\nan integrating sphere. For the determination of the luminescence lifetime, the fluorescence decay was measured on a FLS980 spectrofluorometer equipped with a TSCPC laser (Ir(III) complexes: λ ex = 405 nm; Ru(II) complexes: λ ex = 450 nm) and a REDPMT detector. The F980 spectrometer operating software was used to collect and process luminescence lifetime data.\nPhotostability of Ir(III) and Ru(II) complexes. The photostability of Ir(III) or Ru(II) complexes was monitored by 1H RMN. […]\nSinglet oxygen generation. The capacity of Ir-Me and Ru-Me to generate singlet oxygen ( 1O2) was determined by an indirect method using 9,10-anthracenediyl-bis(methylene) dimalonic acid (ABDA) as a probe. […]"}, "[3]": {"assay": "Self-aggregation study (Lambert-Beer law, UV-vis)", "conditions": "H2O:DMSO (99:1), 1 to 40 μM, absorbance at 417 nm", "method": "The possible aggregation properties (self-assembly behavior) were investigated for the lipophilic derivative Ir-Me through the respective analysis of the Lambert–Beer law using UV–vis spectroscopy in H2O:DMSO (99:1). More specifically, the absorbance of Ir-Me at λ = 417 nm was plotted versus concentration in the range between 1 and 40 μM. An excellent linear fitting was obtained confirming that there is no significant deviation from the Lambert–Beer law (Figures S57 and S58)."}}}
{"compound": "Cn1c2ccccc2c2ccnc(-c3ccc(/C=C/C(=O)O)cn3)c21.[Cl-].[Ir+3].[c-]1ccccc1-c1ccccn1.[c-]1ccccc1-c1ccccn1", "note": "[Ir-H]", "values": [{"measurement": "pKa (excited state)", "setting": "[1]", "result": 3.81}]}
{"compound": "COC(=O)/C=C/c1ccc(-c2nccc3c4ccccc4n(C)c23)nc1.[Cl-].[Ir+3].[c-]1ccccc1-c1ccccn1.[c-]1ccccc1-c1ccccn1", "note": "[Ir-Me]", "values": [{"measurement": "singlet oxygen quantum yield (ΦΔ)", "setting": "[2]", "result": 4, "unit": "%"}, {"measurement": "self-aggregation", "setting": "[3]", "result": "does not form aggregates"}]}
{"compound": "Cn1c2ccccc2c2ccnc(-c3ccc(/C=C/C(=O)O)cn3)c21.[Cl-].[Cl-].[Ru+2].c1ccc(-c2ccccn2)nc1.c1ccc(-c2ccccn2)nc1", "note": "[Ru-H]", "values": [{"measurement": "pKa (excited state)", "setting": "[1]", "result": 4.51}]}
